These results are taken from US20240180872A1, “METHODS AND COMPOUNDS OF CANNABIDIOL, MELATONIN AND AKBA FOR TREATING PANCREATIC CANCER” (priority 2021, published 2024).

This experiment deals with PANC-1 cells. The experiment in a line: Nude mice orthotopic pancreatic tumor model. The class given is in vivo, Athymic Nude-Foxn1nu mice. The conditions noted are these: after 30 days of treatment, GEM 50 mg/kg, MLT 400 mg/kg, CBD 10 mg/kg.

Description: Species and strain: Athymic Nude-Foxn1nu mice.
PANC-1 cells were thawed and cultured in DMEM (Dulbecco's Modified Eagle Medium) +2% L-glutamine +10% FBS (Fetal Bovine Serum), Penicillin/Streptomycin and maintain the cell culture in 100 mm Petri dish (Sarstedt, Germany).
A period of acclimation (at least 5 days) was allowed to mice before tumor inoculation. Before the inoculum, PANC-1 cells were detached with trypsin, counted with trypan blue and for each inoculum, 1×10^6 cells were suspended in 20 ul of PBS. Mice (n=20) were anesthetized with isoflurane (induction at 4% and maintenance at 2%) and cell solutions (20 μL, 1×10^6 cells) were orthotopically injected into the tail of the pancreas exploiting the echo-guided procedure. The 20 animals inoculated with tumor cells were divided in 4 groups (Table 6) when tumor size reaches a volume of approximately 20-30 mm^3 (tumor size was determined by ultrasound imaging analysis).
The animals were inoculated with 1×10^6 PANC-1 cells with VevoLAZR-X system by using echo-guided injection method. All animals were treated every three days for 30 days starting when tumor reached the volume of approximately 30 mm^3 (around 10-15 days from the inoculum). […]
Tumor volume was analyzed by using Vevo Lab software (Fujifilm Visualsonics).

Regarding `Nc1ccn([C@@H]2O[C@H](CO)[C@@H](O)C2(F)F)c(=O)n1` [GEM, Gemcitabine], the tumor volumes (IP every three days, Vehicle 630,8) is recorded as 111,1. For the same compound, where the note is “IP”, the “effect on tumor volume” value is given as “high effect”.
